According to patent publication US20240360165A1, “INHIBITORS OF CYCLIN DEPENDENT KINASE 7 (CDK7)” (Syros Pharmaceuticals, Inc., priority 2016, published 2024):
Read-outs that look alike come from different tables or passages of the source.

What was measured:
CDK2/Cyclin E1 complex = CDK2/Cyclin E1 complex (Homo sapiens, UniProt P24941); experiment: CDK2 inhibition assay (Caliper/LabChip EZ Reader kinase assay); format: biochemical
Experimental: (§1) Compounds of the invention were assayed for inhibition of CDK7, CDK9, CDK12, and CDK2 activity at Biortus Biosciences (Jiangyin, Jiangsu Province, P.R. of China) using kinase assays for each CDK developed with a Caliper/LabChip EZ Reader (Perkin Elmer, Waltham, MA).
(§2) Furthermore, the CDK9 inhibition assay used CDK9/Cyclin T1 complex (8 nM) and “5-FAM-CDK9tide” peptide substrate (2 μM, synthesized fluorophore-labeled peptide with the following sequence: 5-FAM-GSRTPMY-NH2 where 5-FAM is defined above and NH2 signifies a C-terminal amide) with 10 mM MgCl2 in the buffer composition listed above. […] Additionally, the CDK2 inhibition assay used CDK2/Cyclin E1 complex (0.5 nM) and “5-FAM-CDK7tide” ([…]) as defined above, with 2 mM MgCl2 in the buffer composition listed above.

[1] = target: T1, CDK12 (aa686-1082)/Cyclin K complex (Homo sapiens, UniProt Q9NYV4); experiment: CDK12 inhibition assay (Caliper/LabChip EZ Reader kinase assay); format: biochemical; conditions: Table 1; CDK12 (aa686-1082)/Cyclin K 50 nM, ATP 2 mM, 3 hr at 27° C.
T1 construct: CDK12 (aa686-1082)/Cyclin K complex
Experimental: as §1, §2

CDK9/Cyclin T1 complex = CDK9/Cyclin T1 complex (Homo sapiens, UniProt P50750); experiment: CDK9 inhibition assay (Caliper/LabChip EZ Reader kinase assay); format: biochemical
Experimental: as §1, §2

[2] = target: CDK7/Cyclin H/MAT1 complex (Homo sapiens, UniProt P50613); experiment: CDK7 inhibition assay (Caliper/LabChip EZ Reader kinase assay); format: biochemical
Experimental: as §1, §2

A673 cells = experiment: Inhibition of proliferation of A673 cells (CyQUANT, 72 hour); format: cell-based, human; conditions: Homo sapiens, A673, 72 h
Experimental: A673 cells are a cell line derived from human […] Ewing's sarcoma. Representative compounds of the invention were tested at different concentrations (from […]; 0.5 log serial dilutions) for their ability to inhibit the proliferation of A673 cells. Known CDK inhibitors dinaciclib or N-((1S,3R)-3-((5-chloro-4-(1H-indol-3-yl)pyrimidin-2-yl)amino)cyclohexyl)-5-((E)-4-(dimethylamino)but-2-enamido)picolinamide and triptolide were used as positive controls. Cells were grown in Dulbecco's Modified Eagle's Medium, +10% FBS+1 mM Sodium Pyruvate. The cells were cultured at 37° C. in a humidified chamber in the presence of 5% CO2. Proliferation assays were conducted over a 72 hour time period. CyQUANT® (Life Technologies, Chicago, IL USA) was used to assess the anti-proliferative effects of the compounds following manufacturer's directions and utilizing the reagents supplied with the CyQUANT® kit.

[3] = Table 1, CDK2/Cyclin E1 0.5 nM, ATP 2 mM, 35 min at 27° C.
[4] = Table 1, CDK9/Cyclin T1 8 nM, ATP 2 mM, 15 min at 27° C.
[5] = Table 1, CDK7/Cyclin H/MAT1 6 nM, ATP 2 mM, 35 min at 27° C.
[6] = A673 cells, 72 hour, CyQUANT, read-out: Inhibition of Proliferation of A673 Cells (calculated IC50)
[7] = Table 3, comparison with structural analogs

Sequence of CDK9/Cyclin T1 complex (P50750 whole entry, species assumed): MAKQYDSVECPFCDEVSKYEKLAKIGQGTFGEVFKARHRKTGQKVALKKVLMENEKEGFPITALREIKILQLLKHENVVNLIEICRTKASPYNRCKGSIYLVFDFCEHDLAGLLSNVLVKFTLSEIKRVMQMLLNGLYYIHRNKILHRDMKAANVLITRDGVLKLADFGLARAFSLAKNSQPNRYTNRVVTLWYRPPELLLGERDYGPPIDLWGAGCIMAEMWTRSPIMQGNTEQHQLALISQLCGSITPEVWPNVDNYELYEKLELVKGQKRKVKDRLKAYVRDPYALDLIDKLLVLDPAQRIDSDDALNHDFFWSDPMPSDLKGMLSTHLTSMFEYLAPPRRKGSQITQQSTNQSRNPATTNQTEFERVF
Sequence of CDK9/Cyclin T1 complex (O60563 whole entry partner, species assumed): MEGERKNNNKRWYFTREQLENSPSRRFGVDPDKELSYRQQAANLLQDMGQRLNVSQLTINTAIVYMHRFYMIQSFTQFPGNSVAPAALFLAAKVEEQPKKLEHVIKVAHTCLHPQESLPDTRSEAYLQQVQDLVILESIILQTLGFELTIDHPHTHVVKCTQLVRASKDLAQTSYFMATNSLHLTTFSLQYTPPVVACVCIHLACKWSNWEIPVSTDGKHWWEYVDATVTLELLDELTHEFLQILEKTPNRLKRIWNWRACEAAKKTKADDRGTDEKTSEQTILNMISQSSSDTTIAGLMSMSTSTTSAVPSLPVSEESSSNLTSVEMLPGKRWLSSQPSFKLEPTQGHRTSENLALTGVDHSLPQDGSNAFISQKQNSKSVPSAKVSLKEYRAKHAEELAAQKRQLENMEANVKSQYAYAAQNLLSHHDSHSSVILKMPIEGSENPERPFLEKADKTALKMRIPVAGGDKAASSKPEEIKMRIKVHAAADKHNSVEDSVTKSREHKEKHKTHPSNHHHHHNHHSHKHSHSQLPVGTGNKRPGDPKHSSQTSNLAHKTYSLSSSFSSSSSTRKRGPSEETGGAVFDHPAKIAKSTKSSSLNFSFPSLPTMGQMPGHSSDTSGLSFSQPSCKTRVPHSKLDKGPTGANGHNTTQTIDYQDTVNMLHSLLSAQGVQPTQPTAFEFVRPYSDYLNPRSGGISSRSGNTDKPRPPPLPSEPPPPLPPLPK
T1 sequence (Q9NYV4 686-1082, species assumed): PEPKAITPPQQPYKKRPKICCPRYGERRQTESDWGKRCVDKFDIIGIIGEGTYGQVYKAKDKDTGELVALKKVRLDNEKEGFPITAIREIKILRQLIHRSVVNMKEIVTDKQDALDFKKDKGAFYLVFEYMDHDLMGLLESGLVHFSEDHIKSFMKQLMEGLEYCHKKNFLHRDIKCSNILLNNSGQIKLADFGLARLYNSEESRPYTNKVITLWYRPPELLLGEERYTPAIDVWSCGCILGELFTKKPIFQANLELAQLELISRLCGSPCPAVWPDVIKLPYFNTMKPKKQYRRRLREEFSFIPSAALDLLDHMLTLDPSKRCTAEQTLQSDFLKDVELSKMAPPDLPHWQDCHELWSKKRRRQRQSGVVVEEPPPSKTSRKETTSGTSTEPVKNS
T1 sequence (O75909 whole entry partner, species assumed, the tested form may be a part): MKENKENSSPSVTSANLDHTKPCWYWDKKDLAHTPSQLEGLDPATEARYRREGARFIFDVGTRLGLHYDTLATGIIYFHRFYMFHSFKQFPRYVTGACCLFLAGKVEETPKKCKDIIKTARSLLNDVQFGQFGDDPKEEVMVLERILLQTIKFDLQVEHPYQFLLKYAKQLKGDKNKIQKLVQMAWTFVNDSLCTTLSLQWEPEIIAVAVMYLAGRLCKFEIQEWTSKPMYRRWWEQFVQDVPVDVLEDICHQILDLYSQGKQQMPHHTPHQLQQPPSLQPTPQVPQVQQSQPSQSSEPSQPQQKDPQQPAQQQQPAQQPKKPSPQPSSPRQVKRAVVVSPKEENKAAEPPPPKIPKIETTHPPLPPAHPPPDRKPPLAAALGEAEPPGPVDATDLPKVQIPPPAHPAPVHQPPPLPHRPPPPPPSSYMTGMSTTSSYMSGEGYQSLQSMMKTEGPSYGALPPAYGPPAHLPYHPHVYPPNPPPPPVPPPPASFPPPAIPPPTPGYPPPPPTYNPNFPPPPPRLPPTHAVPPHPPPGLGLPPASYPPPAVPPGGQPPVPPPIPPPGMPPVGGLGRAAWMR
Sequence of CDK7/Cyclin H/MAT1 complex (P50613 whole entry, species assumed): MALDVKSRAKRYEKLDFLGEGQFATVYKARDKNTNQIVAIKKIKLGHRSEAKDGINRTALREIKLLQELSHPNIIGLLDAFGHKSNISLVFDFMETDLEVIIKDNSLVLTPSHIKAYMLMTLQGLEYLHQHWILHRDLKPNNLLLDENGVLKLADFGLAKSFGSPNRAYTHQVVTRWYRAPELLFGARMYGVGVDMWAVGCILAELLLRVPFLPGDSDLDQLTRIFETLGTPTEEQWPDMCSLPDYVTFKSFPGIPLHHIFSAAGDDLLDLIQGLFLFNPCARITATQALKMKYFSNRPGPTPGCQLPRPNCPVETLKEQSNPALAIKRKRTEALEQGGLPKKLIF
Sequence of CDK7/Cyclin H/MAT1 complex (P51946 whole entry partner, species assumed): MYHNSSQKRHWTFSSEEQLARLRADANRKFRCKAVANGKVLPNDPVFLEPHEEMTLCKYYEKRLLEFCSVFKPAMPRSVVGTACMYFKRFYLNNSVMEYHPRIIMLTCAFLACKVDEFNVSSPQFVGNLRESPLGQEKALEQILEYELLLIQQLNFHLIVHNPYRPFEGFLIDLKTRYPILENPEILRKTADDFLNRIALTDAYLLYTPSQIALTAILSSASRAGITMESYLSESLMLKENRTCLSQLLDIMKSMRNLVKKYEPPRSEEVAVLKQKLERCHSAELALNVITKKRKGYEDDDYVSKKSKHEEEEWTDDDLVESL
Sequence of CDK7/Cyclin H/MAT1 complex (P51948 whole entry partner, species assumed): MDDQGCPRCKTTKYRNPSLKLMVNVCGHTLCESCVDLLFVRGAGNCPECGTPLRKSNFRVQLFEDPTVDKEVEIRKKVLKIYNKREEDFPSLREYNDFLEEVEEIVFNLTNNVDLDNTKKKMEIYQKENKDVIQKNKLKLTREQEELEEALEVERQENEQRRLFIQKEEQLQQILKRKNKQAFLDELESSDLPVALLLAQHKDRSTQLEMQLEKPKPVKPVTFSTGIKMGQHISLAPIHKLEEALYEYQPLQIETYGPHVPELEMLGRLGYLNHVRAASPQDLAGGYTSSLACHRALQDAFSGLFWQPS

SMILES	IC50 (CDK2/Cyclin E1 complex; [3]) [µM]	IC50 [1] [µM]	IC50 (CDK9/Cyclin T1 complex; [4]) [µM]	IC50 [2, 5] [nM]	IC50 (A673 cells; [6]) [nM]	IC50 (CDK2/Cyclin E1 complex; [7]) [µM]	IC50 (A673 cells; Table 3, comparison with structural analogs, 72 hour proliferation, read-out: A673 Cells) [nM]	IC50 (CDK9/Cyclin T1 complex; [7]) [µM]	IC50 [2, 7] [nM]
CCc1cnc(N[C@H]2CCCNC2)nc1-c1c[nH]c2c(S(=O)(=O)O)cccc12 [Compound 362, 3-[5-ethyl-2-[[(3S)-3-piperidyl]amino]pyrimidin-4-yl]-1H-indole-7-sulfonic acid]	> 5	> 5	> 5	20 to 200					
FC(F)(F)c1cnc(N[C@H]2CCCNC2)nc1-c1c[nH]c2c(Br)cccc12 [Compound 163]		0.2 to 5	0.2 to 5	20 to 200	20 to 200				
FC(F)(F)c1cnc(N[C@H]2CCCNC2)nc1-c1n[nH]c2ccccc12 [drawing 562]						0.2 to 5	< 20	0.2 to 5	< 20
FC(F)(F)c1cnc(N[C@H]2CCCNC2)nc1-c1c[nH]c2cc(-n3ccnc3)ccc12 [Compound 248, 4-(6-imidazol-1-yl-1H-indol-3-yl)-N-[(3S)-3-piperidyl]-5-(trifluoromethyl) pyrimidin-2-amine]	0.2 to 5	0.2 to 5	0.2 to 5	< 20					
CC1(O)CCC(c2cccc3c(-c4nc(N[C@H]5CCCNC5)ncc4C(F)(F)F)c[nH]c23)CC1 (single isomer, unassigned) [Compound 193]	0.2 to 5	0.2 to 5	0.2 to 5	20 to 200					
CCc1cnc(N[C@H]2CCCNC2)nc1-c1c[nH]c2c(S(=O)O)cccc12 [Compound 363, 3-[5-ethyl-2-[[(3S)-3-piperidyl]amino]pyrimidin-4-yl]-1H-indole-7-sulfinic acid]	> 5	> 5	> 5	20 to 200					
CCC(=O)N[C@H]1CNC[C@@H](Nc2ncc(C(F)(F)F)c(-c3c[nH]c4c(S(C)(=O)=O)cccc34)n2)C1 [Compound 254, N-[(3R,5S)-5-[[4-(7-methylsulfonyl-1H-indol-3-yl)-5-(trifluoromethyl)pyrimidin-2-yl]amino]-3-piperidyl]propanamide]	> 5	> 5	> 5	200 to 5000					
FC(F)(F)c1cnc(N[C@H]2CCC3(CCCCC3)NC2)nc1-c1c[nH]c2ccccc12 [Compound 240]	0.2 to 5	0.2 to 5	0.2 to 5	20 to 200					
CCc1cnc(N[C@H]2CCCNC2)nc1-c1c[nH]c2ncc(F)cc12 [Compound 270, (S)-5-ethyl-4-(5-fluoro-1H-pyrrolo[2,3-b]pyridin-3-yl)-N-(piperidin-3-yl)pyrimidin-2-amine]	0.2 to 5	0.2 to 5	0.2 to 5	< 20					
Cn1cc(-c2cccc3c(-c4nc(N[C@H]5CCCNC5)ncc4C(F)(F)F)c[nH]c23)cn1 [Compound 164]		0.2 to 5	0.2 to 5	20 to 200	< 20				
FC(F)(F)c1cnc(N[C@H]2CCCNC2)nc1-c1c[nH]c2c(-c3ccncc3)cccc12 [Compound 162]		0.2 to 5	0.2 to 5	20 to 200	< 20				
C[C@]1(O)CCN(C(=O)c2ccc3c(-c4nc(N[C@H]5CCCNC5)ncc4C(F)(F)F)c[nH]c3c2)C1 [Compound 220, [(3S)-3-hydroxy-3-methyl-pyrrolidin-1-yl]-[3-[2-[[(3S)-3-piperidyl]amino]-5-(trifluoromethyl)pyrimidin-4-yl]-1Hindol-6-yl]methanone]	> 5	0.2 to 5	> 5	< 20					
FC(F)(F)c1cnc(N[C@H]2CCCNC2)nc1-c1c[nH]c2cc(N3CCCC3)ccc12 [Compound 213, N-[(3S)-3-piperidyl]-4-(6-pyrrolidin-1-yl-1H-indol-3-yl)-5-(trifluoromethyl) pyrimidin-2-amine]	> 5		> 5		20 to 200				
CC1(O)CCC(c2cccc3c(-c4nc(N[C@H]5CCCNC5)ncc4C(F)(F)F)c[nH]c23)CC1 (single isomer, unassigned) [Compound 192]	0.2 to 5	0.2 to 5	0.2 to 5	20 to 200					
